# Results from US20170143701A1, “CARBOHYDRATE METABOLISM-AMELIORATING AGENT” (SUNTORY HOLDINGS LIMITED, priority 2014, published 2017).
# Tests used:
# NCI-H716 cells = test: In vitro GLP-1 secretion-accelerating action: amount of active GLP-1 secreted (ELISA); format: cell-based; conditions: 1 hour; for Significant difference (p < 0.05) vs control group, amount of active GLP-1 secreted: 10 mM, Student's t-test; for Amount of active GLP-1 secreted (relative value to control group as 100), average value: cyclic dipeptide 10 mM with 10 μM Sitagliptin phosphate, group with no cyclic dipeptide = 100
# Procedure: Among the cyclic dipeptides, 92 highly water-soluble cyclic dipeptides were used in the following experiment. In each well of a Poly-L-Lysine 96-well plate, NCI-H716 cells suspended in 100 μL of a DMEM (with 10% FBS, 2 mM glutamine, and 1% antibiotics added in advance) were seeded at 0.5×10^5 cells/well, and cultured in a CO2 incubator (manufactured by ESPEC CORP.) for 48 hours. After washing with PBS(+), 100 μL of a PBS(+) solution with each cyclic dipeptide at a final concentration of 10 mM and 10 μM of Sitagliptin phosphate added therein was added to the cells. After 1 hour, the resultant solution was recovered, and the amount of active GLP-1 in the solution was measured by using the ELISA kit. In the analysis, the amount of active GLP-1 for a group with no cyclic dipeptide added was defined as 100, and relative values thereto were used.
# C57/BL6J mice = test: In vivo plasma GLP-1 level-increasing action: plasma active GLP-1 level (ELISA) after oral administration; conditions: 10 mg/kg oral; for Significant difference (p < 0.05) vs control group, plasma active GLP-1 level: 30 minutes, Student's t-test; for Plasma active GLP-1 level (relative value to control group as 100), average value: blood 30 minutes after, 0.5% CMC-Na group = 100
# Procedure: Seven-week-old male C57/BL6J mice were purchased from CLEA Japan, Inc. for use, and they were subjected to an experiment after 1 week of a habituation period.
# After the habituation period, the mice were subjected to 5.5 hours of food deprivation and 2 hours of water deprivation. Thereafter, a cyclic dipeptide dissolved or suspended in a 0.5% CMC-Na aqueous solution in 10 mg/kg was orally administered to each mouse forcibly. After 30 minutes, the blood was collected from the abdominal vena cava under anesthesia, and 1 μL of heparin sodium and 1 μL of 10 mM Sitagliptin phosphate were added to each collected blood, which was then subjected to centrifugation at 8000 rpm for 10 minutes to recover the plasma, and the plasma active GLP-1 level was measured by using the ELISA kit. In the analysis, the active GLP-1 level for a group administered with 0.5% CMC-Na aqueous solution was defined as 100, and relative values thereto were used.
Compound,"Significant difference (p < 0.05) vs control group, plasma active GLP-1 level (C57/BL6J mice; Table 6, Experiment 1)","Plasma active GLP-1 level (relative value to control group as 100), average value (C57/BL6J mice; Table 6, Experiment 1)","Significant difference (p < 0.05) vs control group, amount of active GLP-1 secreted (NCI-H716 cells; Table 4, Experiment 4)","Amount of active GLP-1 secreted (relative value to control group as 100), average value (NCI-H716 cells; Table 4, Experiment 4)","Significant difference (p < 0.05) vs control group, plasma active GLP-1 level (C57/BL6J mice; Table 7, Experiment 2)","Plasma active GLP-1 level (relative value to control group as 100), average value (C57/BL6J mice; Table 7, Experiment 2)",also measured
"CSCC[C@@H]1NC(=O)[C@@H]2CCCN2C1=O [compound 18, cyclo-methionyl-proline]",Yes,138,–,–,–,–,"Significant difference (p < 0.05) vs control group, amount of active GLP-1 secreted (NCI-H716 cells; Table 1, Experiment 1): Yes; Amount of active GLP-1 secreted (relative value to control group as 100), average value (NCI-H716 cells; Table 1, Experiment 1): 338"
"CC1NC(=O)C(CO)NC1=O (stereo not drawn) [compound 25, cyclo-alanyl-serine]",Yes,158,–,–,–,–,"Significant difference (p < 0.05) vs control group, amount of active GLP-1 secreted (NCI-H716 cells; Table 1, Experiment 1): Yes; Amount of active GLP-1 secreted (relative value to control group as 100), average value (NCI-H716 cells; Table 1, Experiment 1): 257"
"C[C@@H](O)[C@@H]1NC(=O)[C@@H]2CCCN2C1=O [compound 31, Cyclo(Pro-Thr)]",No,129,–,–,–,–,"Significant difference (p < 0.05) vs control group, amount of active GLP-1 secreted (NCI-H716 cells; Table 1, Experiment 1): Yes; Amount of active GLP-1 secreted (relative value to control group as 100), average value (NCI-H716 cells; Table 1, Experiment 1): 204"
"C[C@@H]1NC(=O)[C@H](Cc2cnc[nH]2)NC1=O [compound 34, Cyclo(Ala-His)]",No,100,–,–,–,–,"Significant difference (p < 0.05) vs control group, amount of active GLP-1 secreted (NCI-H716 cells; Table 1, Experiment 1): No; Amount of active GLP-1 secreted (relative value to control group as 100), average value (NCI-H716 cells; Table 1, Experiment 1): 211"
"O=C1N[C@@H](Cc2cnc[nH]2)C(=O)N2CCC[C@@H]12 [compound 37, cyclo-histidyl-proline]",Yes,62,–,–,–,–,"Significant difference (p < 0.05) vs control group, amount of active GLP-1 secreted (NCI-H716 cells; Table 1, Experiment 1): No; Amount of active GLP-1 secreted (relative value to control group as 100), average value (NCI-H716 cells; Table 1, Experiment 1): 231"
"CC(C)C[C@@H]1NC(=O)[C@H](CCCN=C(N)N)NC1=O [compound 43, cyclo-arginyl-leucine]",Yes,138,–,–,–,–,"Significant difference (p < 0.05) vs control group, amount of active GLP-1 secreted (NCI-H716 cells; Table 1, Experiment 1): Yes; Amount of active GLP-1 secreted (relative value to control group as 100), average value (NCI-H716 cells; Table 1, Experiment 1): 226"
"O=C(O)C[C@@H]1NC(=O)[C@@H]2CCCN2C1=O [compound 48, Cyclo(Asp-Pro)]",No,110,–,–,–,–,"Significant difference (p < 0.05) vs control group, amount of active GLP-1 secreted (NCI-H716 cells; Table 2, Experiment 2): Yes; Amount of active GLP-1 secreted (relative value to control group as 100), average value (NCI-H716 cells; Table 2, Experiment 2): 199"
"O=C1NC(Cc2c[nH]c3ccccc23)C(=O)NC1Cc1cnc[nH]1 (stereo not drawn) [compound 60, Cyclo(Trp-His)]",No,129,–,–,–,–,"Significant difference (p < 0.05) vs control group, amount of active GLP-1 secreted (NCI-H716 cells; Table 2, Experiment 2): Yes; Amount of active GLP-1 secreted (relative value to control group as 100), average value (NCI-H716 cells; Table 2, Experiment 2): 260"
"NCCCCC1NC(=O)C(Cc2ccccc2)NC1=O (stereo not drawn) [compound 63, cyclo-lysyl-phenylalanine]",Yes,206,–,–,–,–,"Significant difference (p < 0.05) vs control group, amount of active GLP-1 secreted (NCI-H716 cells; Table 2, Experiment 2): Yes; Amount of active GLP-1 secreted (relative value to control group as 100), average value (NCI-H716 cells; Table 2, Experiment 2): 220"
"CC(O)C1NC(=O)C(C(C)O)NC1=O (stereo not drawn) [compound 164, cyclo-threonyl-threonine]",–,–,–,–,–,–,"Significant difference (p < 0.05) vs control group, amount of active GLP-1 secreted (NCI-H716 cells; Table 3, Experiment 3): Yes; Amount of active GLP-1 secreted (relative value to control group as 100), average value (NCI-H716 cells; Table 3, Experiment 3): 162; Significant difference (p < 0.05) vs control group, plasma active GLP-1 level (C57/BL6J mice; Table 15, Experiment 10): Yes; Plasma active GLP-1 level (relative value to control group as 100), average value (C57/BL6J mice; Table 15, Experiment 10): 282"
"NC(=O)CC1NC(=O)C(CC(N)=O)NC1=O (stereo not drawn) [compound 173, Cyclo(Asn-Asn)]",–,–,Yes,255,–,–,"Significant difference (p < 0.05) vs control group, plasma active GLP-1 level (C57/BL6J mice; Table 15, Experiment 10): No; Plasma active GLP-1 level (relative value to control group as 100), average value (C57/BL6J mice; Table 15, Experiment 10): 123"
"NC(=O)CCC1NC(=O)C(CC(N)=O)NC1=O (stereo not drawn) [compound 174, Cyclo(Gln-Asn)]",–,–,Yes,305,–,–,"Significant difference (p < 0.05) vs control group, plasma active GLP-1 level (C57/BL6J mice; Table 15, Experiment 10): No; Plasma active GLP-1 level (relative value to control group as 100), average value (C57/BL6J mice; Table 15, Experiment 10): 168"
"CC[C@H](C)[C@@H]1NC(=O)[C@H](CCC(N)=O)NC1=O [compound 182, cyclo-glutaminyl-isoleucine]",–,–,Yes,445,Yes,188,–
"C[C@@H]1NC(=O)[C@@H]2CCCN2C1=O [compound 187, cyclo-L-alanyl-proline]",–,–,Yes,1186,Yes,217,–
"NC(=O)CC[C@@H]1NC(=O)[C@H](Cc2cnc[nH]2)NC1=O [compound 191, cyclo-glutaminyl-histidine]",–,–,Yes,743,Yes,247,–
"O=C(O)C[C@@H]1NC(=O)[C@H](CO)NC1=O [compound 193, cyclo-aspartyl-serine]",–,–,Yes,509,Yes,266,–
"CC(C)[C@@H]1NC(=O)[C@H](CCCN=C(N)N)NC1=O [compound 194, cyclo-arginyl-valine]",–,–,Yes,498,Yes,237,–
"CSCC[C@@H]1NC(=O)[C@H](CCCNC(=N)N)NC1=O [compound 199, cyclo-methionyl-arginine]",–,–,Yes,652,Yes,217,–
"NC(N)=NCCCC1NC(=O)C(CC(=O)O)NC1=O (stereo not drawn) [compound 207, cyclo-arginyl-aspartic acid]",–,–,Yes,1255,Yes,266,–
"NC(N)=NCCC[C@@H]1NC(=O)[C@@H]2CCCN2C1=O [compound 209, cyclo-arginyl-proline]",–,–,Yes,441,Yes,315,–
"NC(=O)CC1NC(=O)CNC1=O (stereo not drawn) [compound 215, cyclo-asparaginyl-glycine]",–,–,Yes,611,Yes,305,–
